Laboratory results as given in patent US20230092389A1, “UNIT DOSES, AEROSOLS, KITS, AND METHODS FOR TREATING HEART CONDITIONS BY PULMONARY ADMINISTRATION” (InCarda Therapeutics, Inc., priority 2017, published 2023).
Where two headings read alike, the source gives them in different places.

Columns and labels:
[1] = tested on: dogs with induced atrial fibrillation; assay type: in vivo, dog; settings: for cardiovascular effect when given by intratracheal instillation: summary of Example 2; for conversion of induced atrial fibrillation to normal sinus rhythm: pulmonary dose 0.25 mg/kg body weight
Description: Atrial Fibrillation Model: A venous catheter was placed in a peripheral vessel (i.e., cephalic) for administration of anesthetic. […] Following induction, animals were endotracheally intubated and mechanically ventilated (˜12 breaths/minute with a tidal volume of 200-300 mL). Subsequently, a cut-down on a jugular vein permitted introduction of a pacing lead into the right atrium. Transthoracic electrodes forming ECG lead II were placed. For test/vehicle article delivery, a 4F catheter was introduced through the trachea and wedged into a small airway, and a venous catheter was placed in a peripheral vessel (i.e., cephalic). […] Approximately 5 min after administration of this parasympathomimetic was started; the following experiments were performed: […] Observations were made for up to 10 minutes. […] Vehicle was only water.

[2] = tested on: dogs with induced supraventricular tachycardia; assay: Induced supraventricular tachycardia (SVT) model, IT vs IV, anesthetized dogs (Example 2); assay type: in vivo, dog; settings: for cardiovascular effect when given by intratracheal instillation: summary of Example 2
Description: Supraventricular Tachycardia Model:
A venous catheter was placed in a peripheral vessel (i.e., cephalic) for administration of anesthetic(s). For anesthesia induction, all animals were given a combination of diazepam (˜0.5 mg/kg) and ketamine (˜10 mg/kg) intravenously through this venous catheter. Anesthesia was sustained until completion of the study with an intravenous infusion of pentobarbital (5-15 mg/kg/hr). Following induction, animals were endotracheally intubated and mechanically ventilated (˜12 breaths/min with a tidal volume of 200-300 mL).
Subsequently, a cut-down on a jugular vein permitted the introduction of a pacing lead into the right atrium. Similarly, for arterial pressure monitoring, a solid-state micromanometer catheter (Millar Instruments) was advanced into the aortic root via a cut-down over an artery (e.g., femoral, carotid). Transthoracic electrodes forming ECG lead II was placed. For vehicle/test article delivery, a 4F catheter was introduced through the trachea and wedged into a small airway, and a venous catheter was placed in a peripheral vessel (i.e., cephalic).
Following instrumentation/hemodynamic stabilization (for at least 15 minutes), right atrial pacing (5-10 V, 40 Hz, 2 ms pulses) was established in order to induce supraventricular tachycardia (SVT); pacing and SVT was sustained throughout the duration of the experiments. Approximately 5 minutes after onset of SVT and while monitoring ECG/arterial pressure continuously, the animals were administered three escalating doses (one at a time) of a test article; each dose was delivered as a bolus (˜3 mL) directly into a small airway through the intratracheal catheter (IT). Following dosing, the heart-rate (HR) and arterial pressure response were monitored for 15 minutes.
Subsequently (once the response to three IT doses had been recorded), hemodynamic recovery was allowed for approximately 30 minutes, and the electrocardiographic/hemodynamic response to the highest test-article dose was re-evaluated; however, for comparison purposes, this dose was delivered intravenously (IV).
Overall, two groups/test-articles were studied, and up to two animals were assigned to each group (n=2/group): one group received esmolol HCL (0.5-1.0 mg/kg, ESM), while the other received adenosine (0.25-1.0 mg/kg, ADN); only one test article was administered to per animal.

physchem = settings: water

**Q.** For `CN(CCOc1ccc(NS(C)(=O)=O)cc1)CCc1ccc(NS(C)(=O)=O)cc1` [dofetilide], which heart rate ([1]; escalating pulmonary doses of 10-40 mcg/kg body weight) is on record?
**A.** minor reduction in heart rate

**Q.** What about the “effect on induced atrial fibrillation” value ([1]; pulmonary (IT) administration) of the same compound?
**A.** marginally slowed the ventricular rate

**Q.** And the “cardiovascular effect when given by intratracheal instillation” value (“cardiovascular effect when given” for short) [1]?
**A.** probable effect

**Q.** Which “effect on the heart” value ([2]; administered via the lung) does the source give for `Nc1ncnc2c1ncn2[C@@H]1O[C@H](CO)[C@@H](O)[C@H]1O` [adenosine] here?
**A.** did not have any effect on the heart

**Q.** What about the “cardiovascular effect when given” value [2] of the same compound?
**A.** clear response was not observed

**Q.** What does the source list for `COc1ccc([C@@H]2Sc3ccccc3N(CCN(C)C)C(=O)[C@@H]2OC(C)=O)cc1` [diltiazem]?
**A.** mean arterial blood pressure (MAP) ([1]; dog, in vivo, 0.25 mg/kg): notable drop; PQ interval ([1]; pulmonary dose 0.25 mg/kg): prolonged the PQ interval; heart rate ([1]; pulmonary dose 0.25 mg/kg): slowed down but marginally; conversion of induced atrial fibrillation to normal sinus rhythm ([1]; 0.25 mg/kg): converted the induced atrial fibrillation to normal sinus rhythm; conversion of induced atrial fibrillation to normal sinus rhythm ([1]; listed as diltiazem HCl, 0.25 mg/kg): Afib converting after administration; cardiovascular effect when given by intratracheal instillation [1]: clear cardiovascular effect; comparison of pulmonary and IV routes ([2]; 0.25 mg/kg (FIGS. 14, 15)): comparable in all aspects; PR interval ([2]; IV or pulmonary, 0.25 mg/kg): prolonged the PR interval; timing of the electrophysiological change ([2]; IV vs pulmonary): comparable between IV and pulmonary; Mean Arterial Pressure (MAP) ([2]; dog, in vivo, iv, 0.25 mg/kg): dropped significantly in both cases; pH of solution in water (3.5 mg/mL solution): 6.7; appearance of solution (diltiazem hydrochloride 50 mg/ml, flecainide acetate 30 mg/ml in distilled water): clear with no visible particulate matter; solubility (physchem): > 90 mg/mL

**Q.** With `COC(=O)CCc1ccc(OCC(O)CNC(C)C)cc1` (stereo not shown) [esmolol] as the compound, how does the AV block ([2]; 0.5 mg/kg via the lung (FIGS. 17, 18)) read?
**A.** period of AV block induced

**Q.** What about the AV block ([2]; 0.75 mg/kg via the lung (FIG. 20)) of the same compound?
**A.** period of AV block induced

**Q.** And the “PR intervals in the ECG traces” value ([2]; elevating doses, IT)?
**A.** prolonging the PR intervals

**Q.** What about the electrophysiological effects ([2]; higher dose 1.0 mg/kg) of the same compound?
**A.** did not produce the same electrophysiological effects

**Q.** What about the AV block ([2]; lower doses, via the lung (IT)) of the same compound?
**A.** 2nd degree AV block

**Q.** What about the “cardiovascular effect when given” value [2] of the same compound?
**A.** probable effect

**Q.** What about the “drop in MAP” value ([2]; via the lung, any of the doses) of the same compound?
**A.** did not cause a drop in MAP
